Measurements published in patent US12227500B2, “Substituted pyrrolo[2,3-b]pyridines for suppressing toxic endoplasmic reticulum stress” (THE TRUSTEES OF COLUMBIA UNIVERSITY IN THE CITY OF NEW YORK, priority 2018, dated 2025).

Key:
Assay in all cases: Radiolabeled ATP kinase assay, panel of 371 kinases (Table S6)
Assay type in all cases: biochemical
[1] = target: T1, panel of 371 human kinases (Homo sapiens, UniProt Q9BXA7); settings: STK22D/TSSK1; 0.1 μM; 10 μM ATP; read-out: % Enzyme Activity (relative to DMSO controls)
T1 construct: purchased Reaction Biology Corp
Text: (§1) ; FIG. 38C). […]. Further targeted analyses, such as genetic knock-down or knock-out, may be warranted to parse the role of these additional kinases in our model of neurodegeneration.

[2] = target: T2, panel of 371 human kinases (Homo sapiens, UniProt Q96PF2); settings: TSSK2; 0.1 μM; 10 μM ATP; read-out: % Enzyme Activity (relative to DMSO controls)
T2 construct: purchased Reaction Biology Corp
Text: as §1

[3] = target: T3, panel of 371 human kinases (Homo sapiens, UniProt P54764); settings: EPHA4; 0.1 μM; 10 μM ATP; read-out: % Enzyme Activity (relative to DMSO controls)
T3 construct: purchased Reaction Biology Corp
Text: as §1

[4] = target: T4, panel of 371 human kinases (Homo sapiens, UniProt Q13464); settings: ROCK1; 0.1 μM; 10 μM ATP; read-out: % Enzyme Activity (relative to DMSO controls)
T4 construct: purchased Reaction Biology Corp
Text: as §1

[5] = target: T5, panel of 371 human kinases (Homo sapiens, UniProt P41240); settings: CSK; 0.1 μM; 10 μM ATP; read-out: % Enzyme Activity (relative to DMSO controls)
T5 construct: purchased Reaction Biology Corp
Text: as §1

[6] = target: T6, panel of 371 human kinases (Homo sapiens, UniProt Q96RG2); settings: PASK; 0.1 μM; 10 μM ATP; read-out: % Enzyme Activity (relative to DMSO controls)
T6 construct: purchased Reaction Biology Corp
Text: as §1

[7] = target: T7, panel of 371 human kinases (Homo sapiens, UniProt Q9NRM7); settings: LATS2; 0.1 μM; 10 μM ATP; read-out: % Enzyme Activity (relative to DMSO controls)
T7 construct: purchased Reaction Biology Corp
Text: as §1

[8] = target: T8, panel of 371 human kinases (Homo sapiens, UniProt Q8NE63); settings: HIPK4; 0.1 μM; 10 μM ATP; read-out: % Enzyme Activity (relative to DMSO controls)
T8 construct: purchased Reaction Biology Corp
Text: as §1

[9] = target: T9, panel of 371 human kinases (Homo sapiens, UniProt Q16539); settings: P38a/MAPK14; 0.1 μM; 10 μM ATP; read-out: % Enzyme Activity (relative to DMSO controls)
T9 construct: purchased Reaction Biology Corp
Text: as §1

[10] = target: T10, panel of 371 human kinases (Homo sapiens, UniProt Q8N4C8); settings: for remaining activity at 0.1 µM: MINK/MINK1, 10 μM ATP, read-out: % Enzyme Activity (relative to DMSO controls)
T10 construct: purchased Reaction Biology Corp
Text: as §1

[11] = target: T11, panel of 371 human kinases (Homo sapiens, UniProt P43405); settings: SYK; 0.1 μM; 10 μM ATP; read-out: % Enzyme Activity (relative to DMSO controls)
T11 construct: purchased Reaction Biology Corp
Text: as §1

[12] = target: T12, panel of 371 human kinases (Homo sapiens, UniProt O75385); settings: ULK1; 0.1 μM; 10 μM ATP; read-out: % Enzyme Activity (relative to DMSO controls)
T12 construct: purchased Reaction Biology Corp
Text: as §1

[13] = target: T13, panel of 371 human kinases (Homo sapiens, UniProt Q9BYP7); settings: WNK3; 0.1 μM; 10 μM ATP; read-out: % Enzyme Activity (relative to DMSO controls)
T13 construct: purchased Reaction Biology Corp
Text: as §1

[14] = target: T14, panel of 371 human kinases (Homo sapiens, UniProt P08581); settings: c-MET; 0.1 μM; 10 μM ATP; read-out: % Enzyme Activity (relative to DMSO controls)
T14 construct: purchased Reaction Biology Corp
Text: as §1

[15] = target: T15, panel of 371 human kinases (Homo sapiens, UniProt O95382); settings: MEKK6; 0.1 μM; 10 μM ATP; read-out: % Enzyme Activity (relative to DMSO controls)
T15 construct: purchased Reaction Biology Corp
Text: as §1

[16] = target: T16, panel of 371 human kinases (Homo sapiens, UniProt O75716); settings: STK16; 0.1 μM; 10 μM ATP; read-out: % Enzyme Activity (relative to DMSO controls)
T16 construct: purchased Reaction Biology Corp
Text: as §1

[17] = target: T17, panel of 371 human kinases (Homo sapiens, UniProt Q16644); settings: MAPKAPK3; 0.1 μM; 10 μM ATP; read-out: % Enzyme Activity (relative to DMSO controls)
T17 construct: purchased Reaction Biology Corp
Text: as §1

[18] = target: T18, panel of 371 human kinases (Homo sapiens, UniProt P51955); settings: NEK2; 0.1 μM; 10 μM ATP; read-out: % Enzyme Activity (relative to DMSO controls)
T18 construct: purchased Reaction Biology Corp
Text: as §1

[19] = target: T19, panel of 371 human kinases (Homo sapiens, UniProt Q9HCP0); settings: CK1g1; 0.1 μM; 10 μM ATP; read-out: % Enzyme Activity (relative to DMSO controls)
T19 construct: purchased Reaction Biology Corp
Text: as §1

[20] = target: T20, panel of 371 human kinases (Homo sapiens, UniProt Q13163); settings: MEK5; 0.1 μM; 10 μM ATP; read-out: % Enzyme Activity (relative to DMSO controls)
T20 construct: purchased Reaction Biology Corp
Text: as §1

[21] = target: T21, panel of 371 human kinases (Homo sapiens, UniProt O94921); settings: CDK14/cyclin Y (PFTK1); 0.1 μM; 10 μM ATP; read-out: % Enzyme Activity (relative to DMSO controls)
T21 construct: purchased Reaction Biology Corp
Text: as §1

[22] = target: T22, panel of 371 human kinases (Homo sapiens, UniProt P54762); settings: EPHB1; 0.1 μM; 10 μM ATP; read-out: % Enzyme Activity (relative to DMSO controls)
T22 construct: purchased Reaction Biology Corp
Text: as §1

[23] = target: T23, panel of 371 human kinases (Homo sapiens, UniProt Q8IY84); settings: NIM1; 0.1 μM; 10 μM ATP; read-out: % Enzyme Activity (relative to DMSO controls)
T23 construct: purchased Reaction Biology Corp
Text: as §1

[24] = target: T24, panel of 371 human kinases (Homo sapiens, UniProt Q9BWU1); settings: CDK19/cyclin C; 0.1 μM; 10 μM ATP; read-out: % Enzyme Activity (relative to DMSO controls)
T24 construct: purchased Reaction Biology Corp
Text: as §1

T10 sequence (Q8N4C8 whole entry): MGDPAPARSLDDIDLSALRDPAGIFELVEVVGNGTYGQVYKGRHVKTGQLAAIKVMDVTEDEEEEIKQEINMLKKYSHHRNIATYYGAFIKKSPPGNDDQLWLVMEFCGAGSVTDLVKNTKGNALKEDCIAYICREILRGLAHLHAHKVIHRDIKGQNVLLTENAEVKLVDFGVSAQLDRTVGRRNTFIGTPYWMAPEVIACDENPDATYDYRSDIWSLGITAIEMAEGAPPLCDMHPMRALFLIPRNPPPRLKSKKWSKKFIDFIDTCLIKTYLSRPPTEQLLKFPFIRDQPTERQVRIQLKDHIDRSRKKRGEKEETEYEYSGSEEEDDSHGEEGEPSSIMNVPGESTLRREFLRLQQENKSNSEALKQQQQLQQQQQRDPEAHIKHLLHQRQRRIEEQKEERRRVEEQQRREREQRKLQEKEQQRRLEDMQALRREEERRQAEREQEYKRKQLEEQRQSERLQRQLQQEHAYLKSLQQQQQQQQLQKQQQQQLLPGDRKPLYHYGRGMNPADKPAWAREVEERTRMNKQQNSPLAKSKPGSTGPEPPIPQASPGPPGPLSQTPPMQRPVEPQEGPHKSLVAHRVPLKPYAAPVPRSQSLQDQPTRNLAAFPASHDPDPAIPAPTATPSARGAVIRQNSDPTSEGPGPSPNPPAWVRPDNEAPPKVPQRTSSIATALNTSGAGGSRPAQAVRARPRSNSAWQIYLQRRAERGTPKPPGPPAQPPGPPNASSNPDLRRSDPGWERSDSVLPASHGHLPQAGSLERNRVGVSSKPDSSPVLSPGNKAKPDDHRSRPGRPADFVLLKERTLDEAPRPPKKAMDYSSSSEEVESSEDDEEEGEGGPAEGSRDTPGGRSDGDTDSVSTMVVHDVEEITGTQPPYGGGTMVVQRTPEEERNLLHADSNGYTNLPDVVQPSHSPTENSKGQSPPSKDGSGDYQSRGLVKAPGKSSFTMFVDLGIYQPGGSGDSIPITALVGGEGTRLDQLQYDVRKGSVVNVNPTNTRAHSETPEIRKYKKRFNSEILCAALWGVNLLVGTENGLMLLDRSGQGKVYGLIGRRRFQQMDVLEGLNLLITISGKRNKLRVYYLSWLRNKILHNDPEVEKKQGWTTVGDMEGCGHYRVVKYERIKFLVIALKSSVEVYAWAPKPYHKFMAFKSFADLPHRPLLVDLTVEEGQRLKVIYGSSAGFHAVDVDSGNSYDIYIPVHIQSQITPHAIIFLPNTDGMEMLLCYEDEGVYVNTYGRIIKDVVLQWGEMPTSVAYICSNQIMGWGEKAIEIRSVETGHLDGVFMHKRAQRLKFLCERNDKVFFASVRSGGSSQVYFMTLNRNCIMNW
T16 sequence (O75716 whole entry): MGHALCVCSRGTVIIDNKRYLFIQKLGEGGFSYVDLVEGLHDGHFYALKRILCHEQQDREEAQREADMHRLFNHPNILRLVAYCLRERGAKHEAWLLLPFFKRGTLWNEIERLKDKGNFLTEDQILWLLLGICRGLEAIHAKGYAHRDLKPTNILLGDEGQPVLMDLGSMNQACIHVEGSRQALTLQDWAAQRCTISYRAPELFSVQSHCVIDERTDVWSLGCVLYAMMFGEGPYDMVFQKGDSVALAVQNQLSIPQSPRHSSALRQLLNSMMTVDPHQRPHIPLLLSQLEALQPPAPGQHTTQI
T1 sequence (Q9BXA7 whole entry): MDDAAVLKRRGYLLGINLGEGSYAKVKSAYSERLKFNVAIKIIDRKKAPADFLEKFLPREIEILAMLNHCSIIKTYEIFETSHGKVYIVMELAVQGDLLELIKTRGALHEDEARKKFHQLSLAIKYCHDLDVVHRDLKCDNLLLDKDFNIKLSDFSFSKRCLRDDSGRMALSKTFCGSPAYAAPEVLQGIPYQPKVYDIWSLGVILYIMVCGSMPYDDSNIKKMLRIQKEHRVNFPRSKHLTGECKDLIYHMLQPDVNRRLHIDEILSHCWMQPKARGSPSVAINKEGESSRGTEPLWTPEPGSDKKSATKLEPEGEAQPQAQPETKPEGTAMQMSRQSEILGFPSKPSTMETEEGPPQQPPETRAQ
T21 sequence (O94921 whole entry): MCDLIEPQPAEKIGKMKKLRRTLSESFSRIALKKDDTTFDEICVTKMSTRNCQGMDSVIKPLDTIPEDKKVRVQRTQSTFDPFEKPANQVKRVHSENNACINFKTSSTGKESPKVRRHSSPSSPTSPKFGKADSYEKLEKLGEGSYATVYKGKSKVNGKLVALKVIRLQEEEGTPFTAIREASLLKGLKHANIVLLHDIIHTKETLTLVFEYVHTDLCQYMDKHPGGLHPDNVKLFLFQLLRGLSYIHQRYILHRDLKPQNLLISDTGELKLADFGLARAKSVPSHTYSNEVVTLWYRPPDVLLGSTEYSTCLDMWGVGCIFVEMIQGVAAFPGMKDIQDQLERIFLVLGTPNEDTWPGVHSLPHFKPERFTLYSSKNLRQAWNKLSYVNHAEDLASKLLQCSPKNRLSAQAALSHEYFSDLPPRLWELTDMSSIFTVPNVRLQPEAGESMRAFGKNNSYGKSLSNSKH
T14 sequence (P08581 25-1390): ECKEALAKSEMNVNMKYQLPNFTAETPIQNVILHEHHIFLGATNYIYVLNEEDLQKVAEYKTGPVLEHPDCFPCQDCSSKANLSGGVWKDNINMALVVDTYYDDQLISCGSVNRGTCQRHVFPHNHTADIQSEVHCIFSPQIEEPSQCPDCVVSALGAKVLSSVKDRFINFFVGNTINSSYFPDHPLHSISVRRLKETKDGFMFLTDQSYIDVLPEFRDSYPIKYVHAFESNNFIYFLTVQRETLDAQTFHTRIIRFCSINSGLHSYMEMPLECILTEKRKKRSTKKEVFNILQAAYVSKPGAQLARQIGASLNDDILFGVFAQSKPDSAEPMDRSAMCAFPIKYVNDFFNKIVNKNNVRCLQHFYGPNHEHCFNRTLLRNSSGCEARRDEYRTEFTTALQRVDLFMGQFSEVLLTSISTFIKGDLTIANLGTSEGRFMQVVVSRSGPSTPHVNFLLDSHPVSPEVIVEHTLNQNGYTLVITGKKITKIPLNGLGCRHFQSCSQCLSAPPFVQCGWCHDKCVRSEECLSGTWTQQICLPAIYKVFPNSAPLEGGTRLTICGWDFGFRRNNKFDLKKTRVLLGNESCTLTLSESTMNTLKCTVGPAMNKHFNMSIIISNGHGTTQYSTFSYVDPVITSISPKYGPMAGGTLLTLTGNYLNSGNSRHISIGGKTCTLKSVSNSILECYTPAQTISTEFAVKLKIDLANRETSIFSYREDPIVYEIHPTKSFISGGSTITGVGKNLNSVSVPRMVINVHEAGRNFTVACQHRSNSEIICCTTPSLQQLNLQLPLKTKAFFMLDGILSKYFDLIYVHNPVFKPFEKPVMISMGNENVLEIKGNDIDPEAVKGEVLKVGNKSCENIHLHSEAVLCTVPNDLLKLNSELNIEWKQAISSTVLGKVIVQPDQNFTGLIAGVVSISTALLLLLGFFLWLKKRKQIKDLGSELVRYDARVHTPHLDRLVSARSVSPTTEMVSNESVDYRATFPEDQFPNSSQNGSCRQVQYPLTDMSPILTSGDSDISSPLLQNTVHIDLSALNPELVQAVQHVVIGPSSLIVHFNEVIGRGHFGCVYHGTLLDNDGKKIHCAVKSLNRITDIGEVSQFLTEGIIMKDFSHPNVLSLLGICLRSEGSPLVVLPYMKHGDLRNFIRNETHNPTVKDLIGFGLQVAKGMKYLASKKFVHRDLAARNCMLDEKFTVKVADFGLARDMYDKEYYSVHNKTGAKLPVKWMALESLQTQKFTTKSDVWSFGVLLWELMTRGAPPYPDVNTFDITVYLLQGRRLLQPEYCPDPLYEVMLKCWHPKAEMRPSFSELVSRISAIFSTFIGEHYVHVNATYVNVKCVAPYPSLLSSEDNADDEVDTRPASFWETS
T9 sequence (Q16539 whole entry): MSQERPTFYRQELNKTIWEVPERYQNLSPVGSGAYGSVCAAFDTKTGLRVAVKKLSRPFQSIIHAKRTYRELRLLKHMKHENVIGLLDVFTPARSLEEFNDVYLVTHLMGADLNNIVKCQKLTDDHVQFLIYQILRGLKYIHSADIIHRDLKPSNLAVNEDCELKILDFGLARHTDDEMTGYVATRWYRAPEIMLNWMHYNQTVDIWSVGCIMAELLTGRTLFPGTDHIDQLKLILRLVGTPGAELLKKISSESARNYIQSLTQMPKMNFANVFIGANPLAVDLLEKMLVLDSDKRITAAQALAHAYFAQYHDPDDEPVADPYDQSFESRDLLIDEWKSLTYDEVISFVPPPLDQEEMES
T18 sequence (P51955 whole entry): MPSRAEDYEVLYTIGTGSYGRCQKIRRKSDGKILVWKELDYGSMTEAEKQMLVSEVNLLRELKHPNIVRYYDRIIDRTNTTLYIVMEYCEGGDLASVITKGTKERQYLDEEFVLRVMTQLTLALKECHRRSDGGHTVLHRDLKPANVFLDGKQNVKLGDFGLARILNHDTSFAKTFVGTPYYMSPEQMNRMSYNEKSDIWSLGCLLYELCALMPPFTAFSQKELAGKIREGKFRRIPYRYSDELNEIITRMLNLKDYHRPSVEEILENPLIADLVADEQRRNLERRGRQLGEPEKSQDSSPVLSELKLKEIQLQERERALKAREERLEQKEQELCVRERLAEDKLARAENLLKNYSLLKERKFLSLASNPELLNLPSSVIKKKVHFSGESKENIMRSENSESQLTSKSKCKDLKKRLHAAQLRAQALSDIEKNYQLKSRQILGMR
T17 sequence (Q16644 whole entry): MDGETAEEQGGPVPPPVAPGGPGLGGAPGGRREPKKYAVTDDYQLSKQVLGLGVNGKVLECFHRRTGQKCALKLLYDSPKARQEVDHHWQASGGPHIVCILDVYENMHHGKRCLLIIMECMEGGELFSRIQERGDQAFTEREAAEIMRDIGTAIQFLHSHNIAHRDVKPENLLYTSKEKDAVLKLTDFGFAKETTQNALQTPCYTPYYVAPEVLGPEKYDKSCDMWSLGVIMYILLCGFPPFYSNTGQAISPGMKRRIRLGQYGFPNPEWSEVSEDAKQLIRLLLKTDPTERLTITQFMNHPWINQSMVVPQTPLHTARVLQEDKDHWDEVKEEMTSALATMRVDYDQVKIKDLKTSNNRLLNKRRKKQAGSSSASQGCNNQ

SMILES | remaining activity at 0.1 µM [1] | remaining activity at 0.1 µM [2] | remaining activity at 0.1 µM [3] | remaining activity at 0.1 µM [4] | remaining activity at 0.1 µM [5] | remaining activity at 0.1 µM [6] | remaining activity at 0.1 µM [7] | remaining activity at 0.1 µM [8] | remaining activity at 0.1 µM [9] | remaining activity at 0.1 µM [10] | remaining activity at 0.1 µM [11] | remaining activity at 0.1 µM [12] | remaining activity at 0.1 µM [13] | remaining activity at 0.1 µM [14] | remaining activity at 0.1 µM [15] | remaining activity at 0.1 µM [16] | remaining activity at 0.1 µM [17] | remaining activity at 0.1 µM [18] | remaining activity at 0.1 µM [19] | remaining activity at 0.1 µM [20] | further results
CN1CCN(Cc2ccc(-c3cnc4[nH]cc(-c5ccc6[nH]ccc6c5)c4c3)cc2)CC1 [Compound 1, 3-(1H-Indol-5-yl)-5-(4-((4-methylpiperazin-1-yl)methyl)phenyl)-1H-pyrrolo[2,3-b]pyridine, reference compound] | 87.2% | 115% | 94.2% | 94.7% | 87.5% | 78% | 83.2% | 107% | 105% | 22.6% | 89.6% | 89.7% | 93.7% | 87.8% | 91.6% | 100% | 101% | 96.2% | 143% | 97.6% | remaining activity at 0.1 µM [21]: 110%; remaining activity at 0.1 µM [22]: 83%; remaining activity at 0.1 µM [23]: 106%; remaining activity at 0.1 µM [24]: 94.9%
OCCN1CCN(Cc2ccc(-c3cnc4[nH]cc(-c5cccc(Cl)c5)c4c3)cc2)CC1 [Compound 12k, 2-(4-(4-(3-(3-Chlorophenyl)-1H-pyrrolo[2,3-b]pyridin-5-yl)benzyl)piperazin-1-yl)ethan-1-ol] | 75.2% | 108% | 88.7% | 79.2% | 90.8% | 90.1% | 88.1% | 105% | 103% | -0.71% | 93.9% | 88.8% | 82.2% | 88.2% | 95% | 109% | 96.7% | 92% | 116% | 85.6% | fold change in MINK1 activity following 12k exposure relative to 1 ([10]; 0.025 μM): 22.56 fold; remaining activity at 0.1 µM [21]: 94.9%; remaining activity at 0.1 µM [22]: 98.3%; remaining activity at 0.1 µM [23]: 105%; remaining activity at 0.1 µM [24]: 64.8%
